Article PMC10695101 (Molecular and cellular endocrinology, 2023)

System: androgen receptor α (ARα)
Assay: Gal4DBD-LBD/UAS luciferase transactivation assay in U-2 OS cells
Format: cell-based, Apteronotus albifrons

Q: Which EC50 does the source give for C[C@]12CC(=O)[C@H]3[C@@H](CCC4=CC(=O)CC[C@@]43C)[C@@H]1CC[C@@H]2O [11-KT] here?
A: 10 nM
